The compounds below were run against cAMP and cAMP-inhibited cGMP 3',5'-cyclic phosphodiesterase 10A (Homo sapiens, UniProt Q9Y233) (assay: Fluorescence Polarization Assay: The fluorescence polarization assay for cyclic nucleotide phosphodiesterases was performed using an IMAP® FP kit supplied by Molecular Devices, Sunnyvale, Calif. (product # R8139). IMAP® technology has been applied previously to phosphodiesterase assays (Huang, W., et al., J. Biomol Screen, 2002, 7: 215). Assays were performed at room temperature in 384-well microtiter plates with an incubation volume of 20.2 μL. Solutions of test compounds were prepared in DMSO and serially diluted with DMSO to yield 8 μL of each of 10 solutions differing by 3-fold in concentration, at 32 serial dilutions per plate.).
Sequence of cAMP and cAMP-inhibited cGMP 3',5'-cyclic phosphodiesterase 10A (Q9Y233 whole entry): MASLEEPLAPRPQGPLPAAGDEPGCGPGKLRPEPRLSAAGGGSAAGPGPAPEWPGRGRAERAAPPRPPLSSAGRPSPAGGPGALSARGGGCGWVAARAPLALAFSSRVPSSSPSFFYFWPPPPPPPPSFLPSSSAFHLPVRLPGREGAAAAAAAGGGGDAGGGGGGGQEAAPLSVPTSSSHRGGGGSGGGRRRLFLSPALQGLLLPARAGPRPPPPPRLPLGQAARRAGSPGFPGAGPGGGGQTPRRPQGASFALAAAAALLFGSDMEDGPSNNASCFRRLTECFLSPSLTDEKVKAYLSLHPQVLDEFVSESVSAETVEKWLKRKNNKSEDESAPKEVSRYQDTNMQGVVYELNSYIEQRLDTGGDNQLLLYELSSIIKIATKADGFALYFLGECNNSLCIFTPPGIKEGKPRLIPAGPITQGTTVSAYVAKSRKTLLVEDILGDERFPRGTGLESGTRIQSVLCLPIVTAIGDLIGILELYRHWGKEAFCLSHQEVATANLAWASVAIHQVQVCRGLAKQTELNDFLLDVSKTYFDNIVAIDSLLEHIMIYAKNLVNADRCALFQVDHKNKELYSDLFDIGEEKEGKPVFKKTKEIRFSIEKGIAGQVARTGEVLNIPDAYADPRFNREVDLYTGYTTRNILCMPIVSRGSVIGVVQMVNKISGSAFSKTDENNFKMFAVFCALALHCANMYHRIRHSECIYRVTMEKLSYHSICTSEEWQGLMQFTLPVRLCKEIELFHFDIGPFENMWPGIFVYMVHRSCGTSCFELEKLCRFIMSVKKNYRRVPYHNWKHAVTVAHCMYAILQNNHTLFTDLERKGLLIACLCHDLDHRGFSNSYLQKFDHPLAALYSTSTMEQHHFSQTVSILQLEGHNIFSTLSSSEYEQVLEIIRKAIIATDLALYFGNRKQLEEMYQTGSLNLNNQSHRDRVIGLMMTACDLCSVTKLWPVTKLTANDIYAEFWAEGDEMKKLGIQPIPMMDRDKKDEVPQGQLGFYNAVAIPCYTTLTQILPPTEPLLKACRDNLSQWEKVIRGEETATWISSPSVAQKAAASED
For `Cc1ncc(-c2ccc(C(C)(C)O)nc2)c(OC[C@H]2C[C@@H]2c2ccc(F)cn2)n1`, the Ki was 0.57 nM.
`Cc1ccc([C@H]2C[C@@H]2COc2nc(C)ncc2-c2cccc(C(F)(F)F)c2)nc1` was tested, and the Ki was 0.83 nM.
Work on `Cc1ccc([C@H]2C[C@@H]2COc2nc(C)ncc2-c2cncnc2)nc1` yielded a Ki of 2.56 nM.
`Cc1ncc(-c2cnc(C(C)(C)O)cc2C)c(OC[C@H]2C[C@@H]2c2ccc3ccccc3n2)n1` gave a Ki of under 0.01 nM.
For `COc1ccc([C@H]2C[C@@H]2COc2nc(C)ncc2-c2ccc(Cl)nc2)nc1`, the Ki was 1.3 nM.
